Values after ≈ are worked out from the molar mass of the structure shown. Read-outs that look alike come from different tables or passages of the source. Numbered stars: 1 amine (or outer) side, 2 acyl side, 3 side chain; on linkers, the order of the positions; unused ones are H or OH. Bridge positions count the residues as written; N and C are the ends. Square brackets hold non-standard residues; d marks the D form. Peptide text beside a SMILES is read from it. * marks the point of attachment. ξ: configuration not given here. NMeTrp(4-OMe) = CN[CH](Cc1c[nH]c2cccc(OC)c12)C(=O)O; X1 = O=C(C(N[*:1])C(O)c1ccccc1)[*:2]; NMeI = CC[CH](C)[CH](NC)C(=O)O; ξNMe2Val = CC(C)C(C(=O)*)N(C)C; NMeT = CN[CH](C(=O)O)[CH](C)O; NMeL = CN[CH](CC(C)C)C(=O)O; NMeV = CN[CH](C(=O)O)C(C)C
Experiments:
Nonomuraea sp. MJM5123 = assay: Antibiotic resistance test of the producing strain; format: cell-based; conditions: ISP2 medium, 2 weeks at 28° C.; for Growth in the presence of antibiotics: 50 μg/ml
Procedure: To test for melanoid pigments, peptone yeast extract iron agar (ISP6) and tyrosine agar (ISP7, with or without tyrosine) was used. Temperature range, NaCl tolerance and pH range for growth was determined on ISP3 medium and antibiotic resistance test was performed on ISP2 medium for 2 weeks at 28° C.

M. tuberculosis H37Rv [1] = assay: Aerobic MBC99; format: cell-based, Mycobacterium tuberculosis; conditions: for classification from MBC99 versus MIC: MBC99 approximately two-fold higher than MIC; for MBC99: aerobic, H37Rv, minimum concentration that kills 99% of organisms
[2] = test system: nonreplicating M. tuberculosis; format: cell-based, Mycobacterium tuberculosis; conditions: for concentration effecting a 99% reduction in viability (MBC under low oxygen): 10 days incubation under non-replicating conditions, cfu readout; for concentration reducing viability of non-replicating M. tuberculosis by one log10: LORA
Candida albicans = assay: Antibacterial selectivity MIC; format: cell-based; conditions: C. albicans; for activity: at 31 μM
Procedure: (§1) Selectivities of H-14 and H-16 were determined by screening them against Escherichia coli, a Gram-negative bacterium, Staphylococcus aureus, a Gram-positive bacterium, Candida albicans, a yeast, and six mycobacterial species (Table 16).

Escherichia coli = assay: Antibacterial selectivity MIC; format: cell-based; conditions: E. coli; for activity: at 31 μM
Procedure: as §1

Staphylococcus aureus = assay: Antibacterial selectivity MIC; format: cell-based; conditions: S. aureus; for activity: at 31 μM
Procedure: as §1

M. smegmatis = assay: Antibacterial selectivity MIC; format: cell-based, Mycobacterium smegmatis; conditions: compared with M. tuberculosis
Procedure: as §1

M. abscesses = assay: Antibacterial selectivity MIC; format: cell-based, Mycobacterium abscessus; conditions: for activity: M. abscesses, compared with the other mycobacteria; for MIC: M. abscessus
Procedure: as §1

Vero cells = assay: Toxicity against mammalian cells (Vero); format: cell-based, African green monkey; conditions: for IC50: Vero cells, read-out: Vero cell IC50; for in vitro mammalian cell toxicity: at 100-fold their MBC; for cytotoxicity: highest testing concentration (32 μM)
Procedure: Cytoxicities of H-14 and H-16 against mammalian cells were evaluated by testing against Vero cells, an African green monkey kidney cell line (Table 18). No cytoxicity was found for either compound at even the highest testing concentration (32 μM).

M. tuberculosis H37Rv [3] = test system: M. tuberculosis H37Rv
M. tuberculosis X003899 = conditions: IndoOceanic clade, strain X003899
M. tuberculosis X004439 = conditions: East Asian clade, strain X004439
M. tuberculosis X004244 = conditions: East Asian clade, strain X004244
M. tuberculosis X005282 = conditions: Euro-American clade, strain X005282
M. tuberculosis X005319 = conditions: Euro-American clade, strain X005319
M. tuberculosis X001354 = conditions: East African Indian clade, strain X001354
M. tuberculosis H37Pv = format: cell-based, Mycobacterium tuberculosis
M. tuberculosis H37Rv [4] = assay: microbe, parasite or virus in culture; conditions: Mycobacterium tuberculosis
[5] = aerobic, replicating M. tuberculosis H37Rv, concentration inhibiting growth by 90%

**Q.** What does the source list for CN[C@H](CC(C)C)C(=O)N[C@H]1C(=O)N[C@@H](CC(N)=O)C(=O)N[C@H]2C(=O)N[C@H]3C(=O)N[C@H](C(=O)N[C@H](C(=O)O)c4cc(O)cc(O)c4-c4cc3ccc4O)[C@H](O)c3ccc(c(Cl)c3)Oc3cc2cc(c3O[C@@H]2O[C@H](CO)[C@@H](O)[C@H](O)[C@H]2O[C@H]2C[C@](C)(N)[C@H](O)[C@H](C)O2)Oc2ccc(cc2Cl)[C@H]1O [Vancomycin]?
**A.** Growth in the presence of antibiotics (Nonomuraea sp. MJM5123): −; susceptibility of MJM5123 to the antibiotic (Nonomuraea sp. MJM5123): susceptible

**Q.** How did the “Growth in the presence of antibiotics” value (Nonomuraea sp. MJM5123) turn out when C=C(NC(=O)C(=C)NC(=O)c1csc(C2=N[C@@H]3c4csc(n4)[C@H]4NC(=O)c5csc(n5)[C@H]([C@](C)(O)[C@@H](C)O)NC(=O)[C@H]5CSC(=N5)/C(=C/C)NC(=O)[C@H]([C@@H](C)O)NC(=O)c5csc(n5)[C@]3(CC2)NC(=O)[C@H](C)NC(=O)C(=C)NC(=O)[C@H](C)NC(=O)[C@H]([C@@H](C)CC)N[C@@H]2C=Cc3c([C@H](C)O)cc(nc3[C@H]2O)C(=O)O[C@@H]4C)n1)C(N)=O [Thiostrepton] was run?
**A.** −

**Q.** What about the “susceptibility of MJM5123 to the antibiotic” value (Nonomuraea sp. MJM5123) of the same compound?
**A.** susceptible

**Q.** Which results are given for CN[C@@H]1[C@@H](O[C@H]2O[C@H](CO)[C@@H](N)[C@H](O)[C@H]2O)OC2C[C@@H](N)[C@@H](O[C@H]3[C@H](O)[C@@H](O)[C@H](N)C[C@@H]3N)OC2[C@@H]1O (stereo partly shown) [Apramycin]?
**A.** Growth in the presence of antibiotics (Nonomuraea sp. MJM5123): −; susceptibility of MJM5123 to the antibiotic (Nonomuraea sp. MJM5123): susceptible

**Q.** What does the source list for CCC(C)C(C(=O)NC1C(=O)N(C)C(C(C)O)C(=O)NC(C(C)C)C(=O)N(C)C(CC(C)C)C(=O)NC(C(C)C)C(=O)N(C)C(C(C)C)C(=O)N(C)C(Cc2c[nH]c3cccc(OC)c23)C(=O)NC(C(C)C)C(=O)NC(Cc2ccccc2)C(=O)NC(C(C)C)C(=O)OC1C)N(C)C(=O)C(NC(=O)C(C(C)C)N(C)C)C(C)C (stereo not shown) [H-16] (ξNMe2Val-V[NMeI]T[NMeT]V[NMeL]V[NMeV][NMeTrp(4-OMe)]VFV; ester 3-C; configuration not given here)?
**A.** classification from MBC99 versus MIC (M. tuberculosis H37Rv [1]): bactericidal; MBC99 (M. tuberculosis H37Rv [1]): 0.19 µM (≈ 0.301 µg/mL); concentration effecting a 99% reduction in viability (MBC under low oxygen) [2]: approximately 1.5 μM; concentration reducing viability of non-replicating M. tuberculosis by one log10 [2]: approximately 1.5 μM; MIC (Candida albicans): >32 µM; antimicrobial activity (Candida albicans): Neither of the compounds displayed antimicrobial activity; activity (Candida albicans): no activity; MIC (Escherichia coli): >32 µM; antimicrobial activity (Escherichia coli): Neither of the compounds displayed antimicrobial activity; activity (Escherichia coli): no activity; MIC (Staphylococcus aureus): >32 µM; antimicrobial activity (Staphylococcus aureus): Neither of the compounds displayed antimicrobial activity; activity (Staphylococcus aureus): no activity; activity (M. smegmatis): activity was lower; activity (M. abscesses): significantly less active; MIC (M. abscesses): >32 µM; IC50 (Vero cells): > 32 µM; in vitro mammalian cell toxicity (Vero cells): no in vitro mammalian cell toxicity; cytotoxicity (Vero cells): No cytoxicity; MIC (M. tuberculosis H37Rv [3]; H37Rv reference in Table 15): 0.37 µM (≈ 0.586 µg/mL); MIC (M. tuberculosis H37Rv [3]; H37Rv reference in Table 19): 0.16 µM (≈ 0.253 µg/mL); MIC (M. tuberculosis H37Rv [3]; [5]): 0.16 µM (≈ 0.253 µg/mL); MIC (M. tuberculosis X003899): 0.19 µM (≈ 0.301 µg/mL); MIC (M. tuberculosis X004439): 0.19 µM (≈ 0.301 µg/mL); MIC (M. tuberculosis X004244): 0.09 µM (≈ 0.143 µg/mL); MIC (M. tuberculosis X005282): 0.14 µM (≈ 0.222 µg/mL); MIC (M. tuberculosis X005319): 0.34 µM (≈ 0.539 µg/mL); MIC (M. tuberculosis X001354): 0.37 µM (≈ 0.586 µg/mL)

**Q.** What does the source list for CCC(C)C(C(=O)NC1C(=O)N(C)C(C(C)O)C(=O)NC(C(C)C)C(=O)N(C)C(CC(C)C)C(=O)NC(C(C)C)C(=O)N(C)C(C(C)C)C(=O)N(C)C(Cc2c[nH]c3cccc(OC)c23)C(=O)NC(C(C)C)C(=O)NC(C(O)c2ccccc2)C(=O)NC(C(C)C)C(=O)OC1C)N(C)C(=O)C(NC(=O)C(C(C)C)N(C)C)C(C)C (stereo not shown) [H-14] (ξNMe2Val-V[NMeI]T[NMeT]V[NMeL]V[NMeV][NMeTrp(4-OMe)]V[X1]V; ester 3-C; configuration not given here)?
**A.** classification from MBC99 versus MIC (M. tuberculosis H37Rv [1]): bactericidal; MBC99 (M. tuberculosis H37Rv [1]): 0.34 µM (≈ 0.544 µg/mL); concentration effecting a 99% reduction in viability (MBC under low oxygen) [2]: approximately 1.5 μM; concentration reducing viability of non-replicating M. tuberculosis by one log10 [2]: approximately 1.5 μM; MIC (Candida albicans): >32 µM; antimicrobial activity (Candida albicans): Neither of the compounds displayed antimicrobial activity; activity (Candida albicans): no activity; MIC (Escherichia coli): >32 µM; antimicrobial activity (Escherichia coli): Neither of the compounds displayed antimicrobial activity; activity (Escherichia coli): no activity; MIC (Staphylococcus aureus): >32 µM; antimicrobial activity (Staphylococcus aureus): Neither of the compounds displayed antimicrobial activity; activity (Staphylococcus aureus): no activity; activity (M. smegmatis): activity was lower; activity (M. abscesses): significantly less active; MIC (M. abscesses): >63 µM; MIC vs. M. tuberculosis (M. tuberculosis H37Pv; 0.5% BSA): 0.16 µM (≈ 0.256 µg/mL); MIC vs. M. tuberculosis (M. tuberculosis H37Pv; 4% BSA): 0.58 µM (≈ 0.928 µg/mL); MIC vs. M. tuberculosis (M. tuberculosis H37Pv; 10% BSA): 0.36 µM (≈ 0.576 µg/mL); IC50 (Vero cells): > 32 µM; in vitro mammalian cell toxicity (Vero cells): no in vitro mammalian cell toxicity; cytotoxicity (Vero cells): No cytoxicity; MIC (M. tuberculosis H37Rv [3]; H37Rv reference in Table 15): 0.38 µM (≈ 0.608 µg/mL); MIC (M. tuberculosis H37Rv [3]; H37Rv reference in Table 19): 0.16 µM (≈ 0.256 µg/mL); MIC (M. tuberculosis H37Rv [3]; [5]): 0.16 µM (≈ 0.256 µg/mL); MIC (M. tuberculosis X003899): 0.23 µM (≈ 0.368 µg/mL); MIC (M. tuberculosis X004439): 0.29 µM (≈ 0.464 µg/mL); MIC (M. tuberculosis X004244): 0.13 µM (≈ 0.208 µg/mL); MIC (M. tuberculosis X005282): 0.14 µM (≈ 0.224 µg/mL); MIC (M. tuberculosis X005319): 0.36 µM (≈ 0.576 µg/mL); MIC (M. tuberculosis X001354): 0.38 µM (≈ 0.608 µg/mL)

**Q.** How did the MIC (M. tuberculosis H37Rv [4]) turn out when CO[C@H]1/C=C/O[C@@]2(C)Oc3c(C)c(O)c4c(O)c(c(/C=N/N5CCN(C)CC5)c(O)c4c3C2=O)NC(=O)/C(C)=C\C=C\[C@H](C)[C@H](O)[C@@H](C)[C@@H](O)[C@@H](C)[C@H](OC(C)=O)[C@@H]1C [rifampin] was run?
**A.** 0.09 µM (≈ 0.0741 µg/mL)

**Q.** How did the “Growth in the presence of antibiotics” value (Nonomuraea sp. MJM5123) turn out when CC1(C)S[C@@H]2[C@H](NC(=O)[C@H](N)c3ccccc3)C(=O)N2[C@H]1C(=O)O [Ampicillin] was run?
**A.** +

**Q.** What about the “susceptibility of MJM5123 to the antibiotic” value (Nonomuraea sp. MJM5123) of the same compound?
**A.** resistant

**Q.** How did the “Growth in the presence of antibiotics” value (Nonomuraea sp. MJM5123) turn out when NC[C@H]1O[C@H](O[C@H]2[C@H](O)[C@@H](O[C@H]3O[C@H](CO)[C@@H](O)[C@H](N)[C@H]3O)[C@H](N)C[C@@H]2N)[C@H](O)[C@@H](O)[C@@H]1O [Kanamycin] was run?
**A.** −

**Q.** For NNC(=O)c1ccncc1 [isoniazid], which MIC (M. tuberculosis H37Rv [4]) is on record?
**A.** 0.47 µM (≈ 0.0645 µg/mL)
